{"source": "patent US8455478B2", "about": "“Rapid onset liquid midazolam composition for buccal administration” (Special Products, Ltd., priority 2010, dated 2013)", "origin": "cited, not measured here", "settings": "pH 8, aqueous solution", "data": [{"smiles": "Cc1ncc2n1-c1ccc(Cl)cc1C(c1ccccc1F)=NC2", "note": "[midazolam, 8-chloro-6-(2-fluorophenyl)-1-methyl-4H-imidazo[1,5-a][1,4]]", "values": [{"measurement": "solubility of midazolam", "value": 55, "unit": "µg/mL"}]}]}
